# Results: paper PMC4367188 (ACS Chemical Neuroscience, 2015)
# Entries after “also recorded” stand apart in the source; their conditions may differ.
# Experiments:
# [1] = molecular target: CHT (Mus musculus, UniProt Q8BGY9); assay: choline uptake in mouse forebrain synaptosomes; format: biochemical; settings: ML352 at 300 nM in saturation choline transport assays
# [2] = molecular target: T1, WT hCHT (Homo sapiens, UniProt Q9GZV3); assay: cell-surface biotinylation, CHT surface expression in WT hCHT HEK 293 cells; format: cell-based; settings: 5 μM, 15 min incubation
# T1 sequence (Q9GZV3 1-580): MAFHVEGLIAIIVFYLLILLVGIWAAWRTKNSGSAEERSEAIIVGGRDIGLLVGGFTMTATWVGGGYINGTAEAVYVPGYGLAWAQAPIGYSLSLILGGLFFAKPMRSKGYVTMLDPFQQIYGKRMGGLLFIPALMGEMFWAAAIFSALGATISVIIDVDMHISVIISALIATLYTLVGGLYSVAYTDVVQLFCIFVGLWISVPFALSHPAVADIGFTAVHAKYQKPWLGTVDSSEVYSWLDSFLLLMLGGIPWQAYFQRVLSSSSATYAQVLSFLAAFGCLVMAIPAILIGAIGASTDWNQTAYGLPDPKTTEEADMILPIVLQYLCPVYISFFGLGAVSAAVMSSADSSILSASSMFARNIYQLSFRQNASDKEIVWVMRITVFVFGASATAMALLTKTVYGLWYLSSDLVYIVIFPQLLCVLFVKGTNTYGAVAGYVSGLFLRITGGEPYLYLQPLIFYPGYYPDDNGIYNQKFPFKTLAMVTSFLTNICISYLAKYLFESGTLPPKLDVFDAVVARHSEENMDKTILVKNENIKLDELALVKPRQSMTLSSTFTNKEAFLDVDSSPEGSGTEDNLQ
# [3] = molecular target: Adenosine A2A (Homo sapiens, UniProt P29274); assay: Lead Profiling Screen radioligand binding
# [4] = molecular target: Endothelin ETA (Homo sapiens, UniProt P25101); assay: Lead Profiling Screen radioligand binding
# [5] = molecular target: Adenosine A1 (Homo sapiens, UniProt P30542); assay: Lead Profiling Screen radioligand binding
# [6] = system: Glutamate, Kainate; assay: Lead Profiling Screen radioligand binding; settings: 10 μM ML352
# [7] = molecular target: Dopamine D42 (Homo sapiens, UniProt P21917, DEL265-296); assay: Lead Profiling Screen radioligand binding
# [8] = molecular target: Calcium Channel N-Type (Rattus norvegicus, UniProt Q02294); assay: Lead Profiling Screen radioligand binding
# [9] = molecular target: Platelet Activating Factor (PAF) (Homo sapiens, UniProt P25105); assay: Lead Profiling Screen radioligand binding
# [10] = system: Sodium Channel, Site 2; assay: Lead Profiling Screen radioligand binding; settings: 10 μM ML352
# [11] = molecular target: Adrenergic β1 (Homo sapiens, UniProt P08588); assay: Lead Profiling Screen radioligand binding
# [12] = molecular target: Adrenergic α1A (Rattus norvegicus, UniProt P43140); assay: Lead Profiling Screen radioligand binding
# [13] = molecular target: Sigma σ1 (Homo sapiens, UniProt Q99720); assay: Lead Profiling Screen radioligand binding
# [14] = system: Glutamate, NMDA, Glycine; assay: Lead Profiling Screen radioligand binding; settings: 10 μM ML352
# [15] = molecular target: Adrenergic β2 (Homo sapiens, UniProt P07550); assay: Lead Profiling Screen radioligand binding
# [16] = molecular target: Transporter, Norepinephrine (NET) (Homo sapiens, UniProt P23975); assay: Lead Profiling Screen radioligand binding
# [17] = system: Thyroid Hormone; assay: Lead Profiling Screen radioligand binding; settings: 10 μM ML352
# [18] = molecular target: Cannabinoid CB1 (Homo sapiens, UniProt P21554); assay: Lead Profiling Screen radioligand binding
# [19] = system: GABAA, Flunitrazepam, Central; assay: Lead Profiling Screen radioligand binding; settings: 10 μM ML352
# [20] = molecular target: Neuropeptide Y Y2 (Homo sapiens, UniProt P49146); assay: Lead Profiling Screen radioligand binding
# [21] = molecular target: serotonin transporter (SERT) (Homo sapiens, UniProt P31645); assay: [3H]5-HT uptake in HEK293 hSERT cells; format: cell-based; settings: transfected HEK 293 cells
# [22] = molecular target: Interleukin IL-1 (Mus musculus, UniProt P13504); assay: Lead Profiling Screen radioligand binding
# [23] = molecular target: norepinephrine transporter (NET) (Homo sapiens, UniProt P23975); assay: [3H]NE uptake in HEK293 hNET cells; format: cell-based; settings: transfected HEK 293 cells
# [24] = molecular target: Bradykinin B1 (Homo sapiens, UniProt P46663); assay: Lead Profiling Screen radioligand binding
# [25] = pharmacokinetics in male Sprague-Dawley rats; settings: rat
# [26] = molecular target: Prostanoid EP4 (Homo sapiens, UniProt P35408); assay: Lead Profiling Screen radioligand binding
# [27] = molecular target: Leukotriene, Cysteinyl CysLT1 (Homo sapiens, UniProt Q9Y271); assay: Lead Profiling Screen radioligand binding
# [28] = molecular target: Glucocorticoid (Homo sapiens, UniProt P04150); assay: Lead Profiling Screen radioligand binding
# [29] = molecular target: T2, hCHT (Homo sapiens, UniProt Q9GZV3); assay: [3H]HC-3 binding to membranes from HEK hCHT cells; settings: for [3H]HC-3 binding Bmax: relative to control
# T2 sequence (Q9GZV3 1-580): T1 sequence (Q9GZV3 1-580)
# [30] = molecular target: AChE (Mus musculus, UniProt P21836); assay: AChE activity in mouse forebrain extracts; format: biochemical; settings: concentrations well above the CHT Ki
# [31] = molecular target: Adenosine A3 (Homo sapiens, UniProt P0DMS8); assay: Lead Profiling Screen radioligand binding
# [32] = system: Glutamate, NMDA, Agonism; assay: Lead Profiling Screen radioligand binding; settings: 10 μM ML352
# AChE, sequence (P21836 32-614): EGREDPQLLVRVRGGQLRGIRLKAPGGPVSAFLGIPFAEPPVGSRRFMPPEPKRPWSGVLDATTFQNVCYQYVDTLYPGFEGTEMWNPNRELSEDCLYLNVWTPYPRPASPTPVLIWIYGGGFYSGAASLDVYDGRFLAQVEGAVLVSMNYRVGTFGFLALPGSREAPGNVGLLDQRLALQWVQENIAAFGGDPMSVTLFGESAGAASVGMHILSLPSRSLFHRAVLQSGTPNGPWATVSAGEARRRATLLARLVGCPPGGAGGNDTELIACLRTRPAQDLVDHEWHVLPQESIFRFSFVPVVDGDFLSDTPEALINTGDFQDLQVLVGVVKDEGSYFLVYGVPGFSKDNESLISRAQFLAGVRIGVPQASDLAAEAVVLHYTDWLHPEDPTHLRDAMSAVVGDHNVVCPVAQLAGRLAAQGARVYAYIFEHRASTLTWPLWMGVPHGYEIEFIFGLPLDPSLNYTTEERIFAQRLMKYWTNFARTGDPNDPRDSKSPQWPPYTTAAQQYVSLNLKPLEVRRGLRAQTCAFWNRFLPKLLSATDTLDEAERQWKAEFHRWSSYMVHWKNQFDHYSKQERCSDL
# norepinephrine transporter (NET), sequence (P23975 whole entry): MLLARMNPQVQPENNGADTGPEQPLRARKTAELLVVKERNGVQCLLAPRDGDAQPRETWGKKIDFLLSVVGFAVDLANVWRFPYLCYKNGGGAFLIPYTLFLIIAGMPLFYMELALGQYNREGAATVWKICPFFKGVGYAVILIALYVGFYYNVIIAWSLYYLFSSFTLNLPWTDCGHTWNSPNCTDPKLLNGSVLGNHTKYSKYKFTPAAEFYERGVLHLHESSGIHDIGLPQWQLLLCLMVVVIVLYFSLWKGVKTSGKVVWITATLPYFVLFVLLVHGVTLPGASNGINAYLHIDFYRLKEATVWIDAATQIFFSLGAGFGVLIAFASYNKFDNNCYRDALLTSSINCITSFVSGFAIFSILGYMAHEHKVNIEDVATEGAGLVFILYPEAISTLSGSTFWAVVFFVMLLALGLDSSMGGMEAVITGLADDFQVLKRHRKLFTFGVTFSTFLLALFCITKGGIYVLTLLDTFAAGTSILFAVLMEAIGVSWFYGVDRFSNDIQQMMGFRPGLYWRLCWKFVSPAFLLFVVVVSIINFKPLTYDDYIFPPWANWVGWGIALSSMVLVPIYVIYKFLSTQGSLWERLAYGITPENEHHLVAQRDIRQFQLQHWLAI
# Transporter, Norepinephrine (NET), sequence (P23975 whole entry): as above
# Platelet Activating Factor (PAF), sequence (P25105 whole entry): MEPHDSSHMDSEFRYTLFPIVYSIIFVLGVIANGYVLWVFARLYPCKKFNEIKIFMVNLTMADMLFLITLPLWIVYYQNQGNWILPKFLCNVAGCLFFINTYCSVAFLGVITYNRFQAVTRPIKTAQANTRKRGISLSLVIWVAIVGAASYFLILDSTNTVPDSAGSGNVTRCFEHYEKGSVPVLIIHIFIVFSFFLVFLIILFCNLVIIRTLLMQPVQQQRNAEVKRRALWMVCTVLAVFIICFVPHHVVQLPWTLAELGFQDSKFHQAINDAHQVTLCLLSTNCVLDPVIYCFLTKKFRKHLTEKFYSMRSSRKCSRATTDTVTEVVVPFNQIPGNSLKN
# Adrenergic α1A, sequence (P43140 whole entry): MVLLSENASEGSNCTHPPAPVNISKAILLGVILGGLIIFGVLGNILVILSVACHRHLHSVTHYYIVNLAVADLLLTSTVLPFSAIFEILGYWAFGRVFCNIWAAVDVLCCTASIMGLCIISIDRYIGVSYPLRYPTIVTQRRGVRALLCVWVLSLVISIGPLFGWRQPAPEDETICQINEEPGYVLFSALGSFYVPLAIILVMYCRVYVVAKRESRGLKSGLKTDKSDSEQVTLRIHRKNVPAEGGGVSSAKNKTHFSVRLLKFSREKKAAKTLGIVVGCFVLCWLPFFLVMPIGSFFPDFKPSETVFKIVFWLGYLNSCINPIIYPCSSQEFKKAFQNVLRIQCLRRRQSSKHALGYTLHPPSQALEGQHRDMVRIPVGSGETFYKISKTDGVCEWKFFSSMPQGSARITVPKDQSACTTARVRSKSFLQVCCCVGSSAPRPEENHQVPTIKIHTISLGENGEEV
# Glucocorticoid, sequence (P04150 whole entry): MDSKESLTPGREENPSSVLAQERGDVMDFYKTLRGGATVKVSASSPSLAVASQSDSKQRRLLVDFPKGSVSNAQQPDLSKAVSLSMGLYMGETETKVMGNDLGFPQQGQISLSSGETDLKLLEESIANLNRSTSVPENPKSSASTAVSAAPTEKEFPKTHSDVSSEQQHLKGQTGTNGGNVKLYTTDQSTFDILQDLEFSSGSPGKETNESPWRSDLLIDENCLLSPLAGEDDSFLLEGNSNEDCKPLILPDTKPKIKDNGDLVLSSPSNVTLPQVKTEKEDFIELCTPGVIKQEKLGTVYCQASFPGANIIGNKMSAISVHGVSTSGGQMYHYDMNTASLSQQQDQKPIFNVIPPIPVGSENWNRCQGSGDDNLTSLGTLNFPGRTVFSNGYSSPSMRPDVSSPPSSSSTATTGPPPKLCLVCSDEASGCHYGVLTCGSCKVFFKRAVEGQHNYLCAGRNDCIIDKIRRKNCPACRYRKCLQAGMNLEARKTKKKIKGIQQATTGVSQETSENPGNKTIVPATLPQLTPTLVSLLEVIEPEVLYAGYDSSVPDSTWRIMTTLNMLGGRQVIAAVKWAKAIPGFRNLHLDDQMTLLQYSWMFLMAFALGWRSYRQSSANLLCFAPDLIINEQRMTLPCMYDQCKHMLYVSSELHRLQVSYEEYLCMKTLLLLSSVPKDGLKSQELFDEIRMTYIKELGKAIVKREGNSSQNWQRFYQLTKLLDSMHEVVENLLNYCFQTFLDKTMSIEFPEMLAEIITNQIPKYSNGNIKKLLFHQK
# Bradykinin B1, sequence (P46663 whole entry): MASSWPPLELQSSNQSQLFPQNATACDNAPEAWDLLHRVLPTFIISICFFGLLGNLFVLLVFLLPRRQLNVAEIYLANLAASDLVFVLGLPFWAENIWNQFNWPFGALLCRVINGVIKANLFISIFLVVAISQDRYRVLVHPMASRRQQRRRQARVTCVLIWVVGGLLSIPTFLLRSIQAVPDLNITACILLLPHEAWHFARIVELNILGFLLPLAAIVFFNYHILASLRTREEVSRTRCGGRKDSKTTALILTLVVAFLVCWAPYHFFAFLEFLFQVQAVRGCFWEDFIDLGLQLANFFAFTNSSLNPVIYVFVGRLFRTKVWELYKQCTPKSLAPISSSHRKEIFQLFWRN
# Sigma σ1, sequence (Q99720 whole entry): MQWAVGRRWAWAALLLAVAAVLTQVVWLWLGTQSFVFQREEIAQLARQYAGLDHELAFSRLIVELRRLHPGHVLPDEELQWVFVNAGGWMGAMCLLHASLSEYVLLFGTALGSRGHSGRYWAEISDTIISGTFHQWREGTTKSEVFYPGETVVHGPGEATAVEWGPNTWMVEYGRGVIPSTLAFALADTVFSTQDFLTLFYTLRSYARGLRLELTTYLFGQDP
# serotonin transporter (SERT), sequence (P31645 whole entry): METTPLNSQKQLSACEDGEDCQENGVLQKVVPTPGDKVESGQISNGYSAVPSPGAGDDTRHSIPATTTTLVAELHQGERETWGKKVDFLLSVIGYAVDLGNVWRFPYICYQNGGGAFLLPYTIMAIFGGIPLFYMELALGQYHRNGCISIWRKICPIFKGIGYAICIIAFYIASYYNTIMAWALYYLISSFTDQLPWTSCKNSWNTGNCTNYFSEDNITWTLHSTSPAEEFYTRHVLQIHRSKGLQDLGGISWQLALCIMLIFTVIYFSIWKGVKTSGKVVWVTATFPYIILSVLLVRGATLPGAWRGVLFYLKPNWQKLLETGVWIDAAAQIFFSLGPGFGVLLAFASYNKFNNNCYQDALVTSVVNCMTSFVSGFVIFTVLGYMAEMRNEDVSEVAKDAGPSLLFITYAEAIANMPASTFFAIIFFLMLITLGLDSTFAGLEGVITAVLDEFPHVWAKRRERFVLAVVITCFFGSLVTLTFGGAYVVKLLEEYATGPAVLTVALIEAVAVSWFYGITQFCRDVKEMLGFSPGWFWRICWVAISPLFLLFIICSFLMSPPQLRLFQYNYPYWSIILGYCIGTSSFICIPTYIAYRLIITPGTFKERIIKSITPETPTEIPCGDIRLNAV
# Adenosine A2A, sequence (P29274 whole entry): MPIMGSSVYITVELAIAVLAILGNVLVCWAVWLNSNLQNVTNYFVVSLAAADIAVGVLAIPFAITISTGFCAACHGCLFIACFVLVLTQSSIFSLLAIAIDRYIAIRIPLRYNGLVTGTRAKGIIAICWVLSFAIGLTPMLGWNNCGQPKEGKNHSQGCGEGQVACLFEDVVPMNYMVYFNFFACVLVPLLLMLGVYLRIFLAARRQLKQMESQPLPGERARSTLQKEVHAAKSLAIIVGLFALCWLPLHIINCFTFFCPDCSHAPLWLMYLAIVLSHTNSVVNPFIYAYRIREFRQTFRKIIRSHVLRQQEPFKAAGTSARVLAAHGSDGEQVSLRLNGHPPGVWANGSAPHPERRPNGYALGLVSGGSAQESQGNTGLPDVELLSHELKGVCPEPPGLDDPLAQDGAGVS
# Leukotriene, Cysteinyl CysLT1, sequence (Q9Y271 whole entry): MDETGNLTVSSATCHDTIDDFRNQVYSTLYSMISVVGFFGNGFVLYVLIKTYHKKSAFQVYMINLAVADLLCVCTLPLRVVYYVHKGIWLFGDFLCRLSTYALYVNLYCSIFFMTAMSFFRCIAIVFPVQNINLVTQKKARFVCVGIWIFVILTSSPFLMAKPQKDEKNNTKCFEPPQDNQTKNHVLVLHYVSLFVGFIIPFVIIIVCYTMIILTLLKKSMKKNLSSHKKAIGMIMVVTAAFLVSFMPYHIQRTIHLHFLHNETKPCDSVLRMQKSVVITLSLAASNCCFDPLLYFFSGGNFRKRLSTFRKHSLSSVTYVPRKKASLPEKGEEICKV
compound,measurement,setting,value
"COc1ccc(C(=O)NCc2cc(C(C)C)no2)cc1OC1CCN(C)CC1 [ML352, N-((3-isopropylisoxazol-5-yl)methyl)-4-methoxy-3-((1-methylpiperidin-4-yl)oxy)benzamide]",mode of choline uptake inhibition,[1],noncompetitively inhibits
same,increase in steady-state hCHT surface expression,[2],43.4 ± 4.7 % of control
same,inhibition at 10 µM,[3],0%
same,inhibition at 10 µM,[4],-3%
same,inhibition at 10 µM,[5],-5%
same,% inhibition,[6],–2%
same,inhibition at 10 µM,[7],-3%
same,inhibition at 10 µM,[8],-1%
same,inhibition at 10 µM,[9],-4%
same,% inhibition,[10],20%
same,inhibition at 10 µM,[11],2%
same,inhibition at 10 µM,[12],23%
same,inhibition at 10 µM,[13],-1%
same,% inhibition,[14],4%
same,inhibition at 10 µM,[15],43%
same,inhibition at 10 µM,[16],12%
same,% inhibition,[17],6%
same,inhibition at 10 µM,[18],4%
same,% inhibition,[19],6%
same,inhibition at 10 µM,[20],7%
same,inhibitory activity at SERT,[21],lack of inhibitory activity
same,inhibition at 10 µM,[22],-2%
same,inhibitory activity at NET,[23],lack of inhibitory activity
same,inhibition at 10 µM,[24],6%
same,clearance,"[25]; in vivo, iv, 1 mg/kg",107 mL/min/kg
same,half-life,"[25]; in vivo, iv, 1 mg/kg",30 min
same,AUC,"[25]; plasma, iv, 1 mg/kg",150 ng·h/mL
same,AUC,"[25]; plasma, po, 2.3 mg/kg",77.5 ng·h/mL
same,Cmax,"[25]; plasma, po, 2.3 mg/kg",32.6 ng/mL
same,Tmax,"[25]; plasma, po, 2.3 mg/kg",15 min
same,bioavailability,"[25]; plasma, po, 2.3 mg/kg",22%
same,inhibition at 10 µM,[26],-7%
same,inhibition at 10 µM,[27],-3%
same,inhibition at 10 µM,[28],-1%
same,[3H]HC-3 binding Bmax,[29]; 200 nM ML352,80.3 ± 3.8%
same,[3H]HC-3 binding Bmax,[29]; 800 nM ML352,48.9 ± 4.1%
same,mode of inhibition of [3H]HC-3 binding,"[29]; transfected cell membranes, 200 and 800 nM ML352",noncompetitive inhibition
same,inhibition of AChE,[30],no ability; also recorded: lacks activity; also recorded: no inhibition
same,inhibition at 10 µM,[31],4%
same,% inhibition,[32],1%
